Experimental data from ChEMBL document CHEMBL1201862, “PubChem BioAssay data set” (2004).
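Cultured in 96-well plates, cells were exposed to test compound for 48 hours across five concentrations. GI50 is the concentration that inhibits growth by half.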 Active and inactive are the calls of the source. No stated cut-off is given here; in the data, active = GI50 up to about 1.1 µM and inactive = higher.

Tests used:
Assay in all cases: inhibition of tumour cell growth, NCI panel, 48 h
HOP-62 = system: HOP-62
OVCAR-8 = system: OVCAR-8
SF-295 = system: SF-295
786-0 = system: 786-0
IGROV-1 = system: IGROV-1
U-251 = system: U-251
NCI-H226 = system: NCI-H226
OVCAR-3 = system: OVCAR-3
M14 = system: M14
NCI-H23 = system: NCI-H23
SF-268 = system: SF-268
UACC-62 = system: UACC-62
RPMI-8226 = system: RPMI-8226
NCI-H522 = system: NCI-H522
SK-MEL-5 = system: SK-MEL-5
HCC 2998 = system: HCC 2998

Measured: GI50

COC(=O)C1=CNC(C(=O)OC)=NN1
inactive: HOP-62 > 100 µM | OVCAR-8 > 100 µM | SF-295 > 100 µM | 786-0 > 100 µM | IGROV-1 > 100 µM | U-251 > 100 µM | NCI-H226 > 100 µM | OVCAR-3 > 100 µM | M14 > 100 µM | NCI-H23 > 100 µM | SF-268 > 100 µM | UACC-62 > 100 µM | RPMI-8226 > 100 µM | NCI-H522 > 100 µM | SK-MEL-5 > 100 µM

C/C(=N\NC(=S)N(C)C)c1ncc[nH]1
inactive: HCC 2998 3.52 µM | OVCAR-8 3.94 µM | SF-295 4.28 µM | 786-0 2.18 µM | IGROV-1 2.78 µM | U-251 2.23 µM | OVCAR-3 3.36 µM | M14 2.31 µM | NCI-H23 2.1 µM | SF-268 3.56 µM | UACC-62 2.51 µM | RPMI-8226 4.2 µM | NCI-H522 2.62 µM | SK-MEL-5 4.46 µM

CCC1CC2C(=O)N(c3ccccc3)C(=O)C2c2[nH]c3ccccc3c21 (stereo not given)
inactive: HCC 2998 29.3 µM | OVCAR-8 12.2 µM | SF-295 7.19 µM | 786-0 18.9 µM | IGROV-1 6.43 µM | U-251 28.5 µM | NCI-H226 11.4 µM | OVCAR-3 15.7 µM | M14 17.1 µM | NCI-H23 71.8 µM | SF-268 24.5 µM | UACC-62 19.5 µM | RPMI-8226 22.5 µM | SK-MEL-5 30.8 µM

CCCc1c[nH]c(-c2ccc(-c3cc(CCC)c(C=O)[nH]3)s2)c1
inactive: OVCAR-8 13.6 µM | SF-295 18.9 µM | 786-0 14.6 µM | IGROV-1 30.4 µM | U-251 15.6 µM | NCI-H226 18.7 µM | OVCAR-3 17 µM | M14 12.1 µM | NCI-H23 26.5 µM | SF-268 18.3 µM | UACC-62 16.9 µM | NCI-H522 16 µM | SK-MEL-5 16.9 µM

COC(=O)NN=C1C(C)(C)C(=NNC(=O)OC)C1(C)C
inactive: HOP-62 > 100 µM | HCC 2998 > 100 µM | OVCAR-8 > 41.2 µM | SF-295 > 100 µM | 786-0 > 100 µM | IGROV-1 > 100 µM | U-251 > 62.7 µM | NCI-H226 > 100 µM | OVCAR-3 > 100 µM | M14 > 100 µM | NCI-H23 > 48.9 µM | SF-268 > 84.1 µM | UACC-62 > 100 µM | NCI-H522 > 61.4 µM | SK-MEL-5 > 100 µM

O=C1c2ccccc2S[C@@H](O)[C@@H]2CCCN12
inactive: HOP-62 > 100 µM | HCC 2998 > 100 µM | OVCAR-8 > 100 µM | SF-295 > 100 µM | 786-0 > 100 µM | IGROV-1 21.9 µM | U-251 > 100 µM | OVCAR-3 > 100 µM | M14 > 100 µM | NCI-H23 > 100 µM | SF-268 > 100 µM | UACC-62 47.9 µM | RPMI-8226 > 100 µM | NCI-H522 > 100 µM | SK-MEL-5 > 100 µM

O=[N+]([O-])c1cc(C2SCc3nc4ccccc4n32)ccc1Cl (stereo not given)
inactive: HCC 2998 18.4 µM | OVCAR-8 30.3 µM | SF-295 38 µM | 786-0 34.3 µM | IGROV-1 45.9 µM | U-251 27.2 µM | NCI-H226 25.1 µM | OVCAR-3 25.3 µM | NCI-H23 16.1 µM | SF-268 20.7 µM | UACC-62 18.6 µM | RPMI-8226 20.3 µM | NCI-H522 20 µM | SK-MEL-5 15 µM
